What was measured:
[1] = system: P. falciparum schizonts expressing EXP2-mNeonGreen; test: Time-lapse video microscopy of egress after compound washout; assay type: cell-based, Plasmodium falciparum; details: 10 μM, 30 min monitoring after washout
[2] = biological target: T1, recombinant PfSUB1 (rPfSUB1) (Plasmodium falciparum, UniProt Q8I0V0); test: rPfSUB1 fluorogenic peptide substrate cleavage inhibition assay; assay type: biochemical; details: versus mammalian trypsin, chymotrypsin and elastase
T1 construct: Chymotrypsin-treated rPfSUB1 (expressed and purified as described previously); made in house
T1 sequence (Q8I0V0 218-688): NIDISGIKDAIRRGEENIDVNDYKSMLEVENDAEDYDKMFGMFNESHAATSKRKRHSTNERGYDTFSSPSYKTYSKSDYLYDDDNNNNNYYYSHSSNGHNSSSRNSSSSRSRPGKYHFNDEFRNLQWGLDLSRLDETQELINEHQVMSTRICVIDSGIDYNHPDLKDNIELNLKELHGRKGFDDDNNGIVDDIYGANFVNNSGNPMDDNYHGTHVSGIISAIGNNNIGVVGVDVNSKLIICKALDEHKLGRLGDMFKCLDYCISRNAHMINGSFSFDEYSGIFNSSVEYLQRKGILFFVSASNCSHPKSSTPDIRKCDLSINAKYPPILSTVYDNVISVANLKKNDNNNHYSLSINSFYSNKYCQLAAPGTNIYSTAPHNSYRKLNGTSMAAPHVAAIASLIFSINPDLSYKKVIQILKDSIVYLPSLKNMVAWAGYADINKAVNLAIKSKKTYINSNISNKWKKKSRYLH

P. falciparum schizonts [3] = test: MitoTracker Red CMXRos viability staining; assay type: cell-based, Plasmodium falciparum; details: 10 μM, 1 h
Protocol: Viewing chambers for live parasite microscopic examination were constructed as previously described ([7]). All images were recorded on a Nikon Eclipse Ni light microscope fitted with a Hamamatsu C11440 digital camera and Nikon N Plan Apo λ 63×/1.45NA oil immersion objective. For time-lapse video microscopy, differential interference contrast (DIC) images were taken at 10 s intervals over 30 min while fluorescence (mNeon Green) images were taken every 2 min to prevent bleaching. Time-lapse videos were analyzed and annotated using Fiji ([44]). For viability staining using the vital mitochondrial dye MitoTracker Red CMXRos (ThermoFisher Scientific; stored as a 10 μM stock in DMSO), the dye was added (20 nM final concentration) to a suspension of schizonts pretreated for 1 h with either DMSO (control, 1% vol/vol) or compound 3j (10 μM). The schizonts were incubated with the dye for 15 min at 37 °C, then washed twice, transferred to a viewing chamber, and observed immediately by dual DIC/fluorescence microscopy.

P. falciparum schizonts [4] = test: Washout egress assay, hemoglobin release into culture supernatants; assay type: cell-based; details: Plasmodium falciparum; 4 h pretreatment, then washout
Protocol: Short-term egress, invasion, and washout assays were performed essentially as described previously ([27], [28], [42]). Briefly, highly synchronous mature Percoll-enriched schizonts with or without added fresh RBCs (∼5% parasitaemia final) were incubated with compounds under test or vehicle only (DMSO, 1% vol/vol). For washout assays, schizonts were treated with C2 or various concentrations of inhibitor 3j for 1 to 4 h, then washed extensively (at least four times) prior to addition to fresh RBCs where required. After incubation at 37 °C for just 1 to 4 h (or overnight for invasion assays) to allow schizont rupture, cells were pelleted. Clarified culture supernatants were assessed for extent of hemoglobin release (a measure of schizont rupture) by absorption spectroscopy at 415 nm as described previously ([28]) or analyzed by Western blot using antibodies against SERA5 ([7], [11]). To quantify generation of new rings, samples of the cultures were fixed with 4% paraformaldehyde/0.02% glutaraldehyde and stained with SYBR Green I (Life Technologies) and then analyzed by flow cytometry on a BD FACSVerse using BD FACSuite software. Data were analyzed using FlowJo software. All cultures were also routinely analyzed by microscopic examination of Giemsa-stained thin films to visually assess parasite morphology.

CC(=O)NC(C(=O)NC(C(=O)NCC(=O)NC(C)B(O)O)C(C)C)C1CCCC1 (stereo not shown) [3j]
egress following washout [1]: no egress occurred over the course of 30 min | selectivity for PfSUB1 [2]: > 100 fold | viability (MitoTracker Red CMXRos incorporation) (P. falciparum schizonts [3]): remained viable | EC50 (P. falciparum schizonts [4]): ~2 µM

— PMC8157947, “Peptidic boronic acids are potent cell-permeable inhibitors of the malaria parasite egress serine protease SUB1” (Proceedings of the National Academy of Sciences of the …, 2021)
